The source of these data is US8148378B2, “Pyridazine derivatives and their use as inhibitors of stearoyl-CoA desaturase-1 activity in a mammal” (Xenon Pharmaceuticals Inc., priority 2003, dated 2012).

Test [1] addresses T1, Stearoyl-CoA Desaturase (SCD) (Mus musculus, UniProt P13516).
T1 construct: from tissue; host or cells: liver microsomes of male ICR mice on a high-carbohydrate, low fat diet
T1 sequence (P13516 1-355): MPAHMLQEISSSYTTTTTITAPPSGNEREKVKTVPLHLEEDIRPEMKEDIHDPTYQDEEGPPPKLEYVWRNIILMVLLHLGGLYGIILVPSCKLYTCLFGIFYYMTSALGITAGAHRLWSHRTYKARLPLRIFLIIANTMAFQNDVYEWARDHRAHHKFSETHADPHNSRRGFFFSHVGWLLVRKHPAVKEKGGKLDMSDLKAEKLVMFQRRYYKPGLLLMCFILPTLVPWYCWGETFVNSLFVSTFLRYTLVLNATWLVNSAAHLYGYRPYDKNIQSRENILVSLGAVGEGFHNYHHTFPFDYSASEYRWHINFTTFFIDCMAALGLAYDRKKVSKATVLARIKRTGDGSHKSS
The test is described as follows: Stearoyl-CoA desaturase inhibition using mouse liver microsomes. In kind it is biochemical. The conditions noted are these: for Residual Activity (% remaining, 1 μM): % SCD enzyme activity remaining at 1 μM test compound; for Residual Activity (% remaining, 10 μM): % SCD enzyme activity remaining at 10 μM test compound. Here is the method: Preparation of Mouse Liver Microsomes:
The absence of mitochondrial contamination is enzymatically assessed.
Incubation of Mouse Liver Microsomes with Test Compounds: […]

In test [2] the target is T2, SCD (Homo sapiens, UniProt O00767).
T2 sequence (O00767 1-359): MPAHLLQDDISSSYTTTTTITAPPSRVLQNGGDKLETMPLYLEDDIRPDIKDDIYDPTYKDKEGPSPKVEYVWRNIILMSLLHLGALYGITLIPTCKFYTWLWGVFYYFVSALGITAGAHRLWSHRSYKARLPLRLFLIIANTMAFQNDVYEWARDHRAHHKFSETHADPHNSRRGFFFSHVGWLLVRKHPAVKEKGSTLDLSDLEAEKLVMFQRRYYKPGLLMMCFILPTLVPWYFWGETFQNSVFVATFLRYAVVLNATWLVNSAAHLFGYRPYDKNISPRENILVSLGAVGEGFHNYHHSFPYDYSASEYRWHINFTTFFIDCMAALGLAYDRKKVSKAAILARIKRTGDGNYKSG
Put plainly: Cell IC50 of SCD inhibitors (Table 1, no method given). It counts as cell-based. The following applies: cell assay, cell type not stated.

The mark [3] stands for this setting: projected from residual activity at 1 and 10 μM, read-out: Projected IC50.
Setting [4] is: microsomal assay, read-out: Microsome IC50.

Read-outs that look alike come from different tables or passages of the source.

Take `CN(CCc1ccccc1)c1ccc(N2CCN(C(=O)c3ccccc3C(F)(F)F)CC2)nn1` [Example 1, {4-[6-(METHYLPHENETHYLAMINO)PYRIDAZIN-3-YL]PIPERAZIN-1-YL}-(2-TRIFLUOROMETHYLPHENYL)METHANONE]: in test [1], the “Residual Activity (% remaining, 1 μM)” value worked out at 86.210 % remaining and the “Residual Activity (% remaining, 10 μM)” value is 57.955 % remaining. Besides, the IC50 (commonly the midpoint of a concentration-inhibition curve) in test [1] (setting [3]) was in the range of 10000 to 50000 nM.

As to `O=C(c1ccccc1C(F)(F)F)N1CCN(c2ccc(NCCc3ccccc3)nn2)CC1` [Example 1.1, [4-(6-PHENETHYLAMINOPYRIDAZIN-3-YL)PIPERAZIN-1-YL]-(2-TRIFLUOROMETHYLPHENYL)METHANONE], in test [1], the “Residual Activity (% remaining, 1 μM)” value was 91.144 % remaining and the “Residual Activity (% remaining, 10 μM)” value came to 55.946 % remaining. In addition, the IC50 in test [1] (setting [3]) lay in the range of 10000 to 50000 nM.

As for `CCCS(=O)(=O)Nc1ccc(N2CCN(C(=O)c3ccccc3C(F)(F)F)CC2)nn1` [Example 2, PROPANE-1-SULFONIC ACID {6-[4-(2-TRIFLUOROMETHYLBENZOYL)PIPERAZIN-1-YL]PYRIDAZIN-3-YL}AMIDE], the IC50 in test [1] (setting [4]) stood at 6250 nM; in test [2] it was 10500 nM.

Turning to `O=C(c1ccccc1C(F)(F)F)N1CCN(c2ccc(S(=O)(=O)CCc3ccccc3)nn2)CC1` [Example 3, {4-[6-(2-PHENYLETHANESULFONYL)PYRIDAZIN-3-YL]PIPERAZIN-1-YL}-(2-TRIFLUOROMETHYL-PHENYL)METHANONE], the IC50 in test [1] (setting [4]) stood at 67 nM; in test [2], 111 nM.

Consider `O=C(c1ccccc1C(F)(F)F)N1CCN(c2ccc([S+]([O-])CCc3ccccc3)nn2)CC1` (stereo not drawn) [Example 4], for which the IC50 turned out to be 67 nM in test [1] (setting [4]) and 175 nM in test [2].

Take `O=C(c1ccccc1C(F)(F)F)N1CCN(c2ccc(OCCc3ccccc3)nn2)CC1` [Example 5, [4-(6-PHENETHYLOXYPYRIDAZIN-3-YL)PIPERAZIN-1-YL]-(2-TRIFLUOROMETHYL-PHENYL)METHANONE]: the IC50 was 4550 nM in test [1] (setting [4]) and 4300 nM in test [2].

Regarding `O=C(c1ccccc1C(F)(F)F)N1CCN(c2ccc(OCCC3CC3)nn2)CC1` [Example 5.1, {4-[6-(2-CYCLOPROPYLETHOXY)PYRIDAZIN-3-YL]PIPERAZIN-1-YL}-(2-TRIFLUOROMETHYLPHENYL)METHANONE], in test [1], the “Residual Activity (% remaining, 1 μM)” value was 53.875 % remaining and the “Residual Activity (% remaining, 10 μM)” value is given as 29.330 % remaining. Moreover, the IC50 in test [1] (setting [3]) was in the range of 1000 to 10000 nM.

In the case of `O=C(c1ccccc1C(F)(F)F)N1CCN(c2ccc(SCCc3ccccc3)nn2)CC1` [Example 6, [4-(6-PHENETHYLSULFANYLPYRIDAZIN-3-YL)PIPERAZIN-1-YL](2-TRIFLUOROMETHYLPHENYL)METHANONE], the IC50 turned out to be 60 nM in test [1] (setting [4]) and 33 nM in test [2].

As for `CC(C)CCSc1ccc(N2CCN(C(=O)c3ccccc3C(F)(F)F)CC2)nn1` [Example 6.1, {4-[6-(3-METHYLBUTYLSULFANYL)PYRIDAZIN-3-YL]PIPERAZIN-1-YL}-(2-TRIFLUOROMETHYL-PHENYL)METHANONE], the IC50 turned out to be 447 nM in test [1] (setting [4]) and 849 nM in test [2].
